Results from patent publication US11000511B2, “Chemical compounds as antibiotics” (priority 2017, dated 2021).

How the values were obtained:
[1] = target: T1, purified LasB protein from P. aeruginosa (Pseudomonas aeruginosa, UniProt P14756); test: Fluorometric assay to determine Ki (Assay 1); type: biochemical; conditions: Ki (μM) Assay 1, purified LasB, substrate Abz-Ala-Gly-Leu-Ala-p-Nitro-Benzyl-Amide 250 μM, Ki calculated from IC50; inhibitor 0.006 to 200 μM
T1 construct: purchased Merck or Charles River Laboratories
Description: (§1) Experiments were therefore conducted (1) to measure the potency of inhibition of compounds of the invention against purified Pseudomonas aeruginosa LasB enzyme and also experiments were conducted (2) to measure the ability of compounds of the invention to inhibit LasB-catalysed elastin degradation. The first assay uses a commercial fluorescent synthetic peptide and purified LasB enzyme. The LasB hydrolysis kinetics are measured allowing the determination of the IC50 and Ki of the inhibitors; the second is a more physiological assay using dialysed Pseudomonas aeruginosa supernatant as source of enzyme, plus its natural substrate Elastin. It is an “end point assay” that determines the percentage of LasB inhibition by each compound for one particular time point and inhibitor concentration. Technical details are described below:
This assay uses commercially available substrate (Abz-Ala-Gly-Leu-Ala-p-Nitro-Benzyl-Amide (Ex: 340 nm, Em: 415 nm) from Peptide International) and purified LasB protein from P. aeruginosa (provided by Merck or Charles River Laboratories). It is performed to determine LasB elastase activity and assess compound inhibition in 96-well plate format. Some compounds of Formula (I) were assessed using the method of Assay 1 (described below). Other compounds of Formula (I) were assessed using the alternative but equivalent method of Assay 2 (described below).
Method: 10 to 140 ng/ml purified LasB is incubated with 250 μM Abz-Ala-Gly-Leu-Ala-p-Nitro-Benzyl-Amide in 50 mM Tris-HCl pH 7.4, 2.5 mM CaCl2), 0.01% of Triton X100 at 37° C. LasB activity (corresponding to fluorescence emission induced by substrate hydrolysis) is measured over 30 min at 37° C. with a fluorescence plate reader such as the Perkin Elmer Envision or similar. Different range of inhibitor concentrations are routinely assessed depending of inhibitor potency from 0.006 to 200 μM (Assay 1; 2-fold dilutions series) or from 0.0016 to 200 μM (Assay 2; 2-fold dilutions series) in order to determine IC50.
The equation used to calculate the Ki from IC50 is: Ki=IC50/(1+([S]/Km)) where [S]=250 μM and Km=214 μM.

[2] = target: T2, LasB elastase activity in dialysed supernatant from P. aeruginosa strain PA01 (Pseudomonas aeruginosa, UniProt P14756); test: Elastin Congo Red assay to determine % inhibition (Assay 1); type: biochemical; conditions: read-out: Elastin hydrolysis % inhibition @ 50/25 μM inhibitor concentration Assay 1
T2 construct: uses as source of enzyme dialysed supernatant from P. aeruginosa; endogenous in cells; host or cells: P. aeruginosa strain PA01 culture supernatant, filtered and dialysed
Description: as §1
The Elastin assay uses as source of enzyme dialysed supernatant from P. aeruginosa and the elastin congo red as substrate. The natural LasB substrate, elastin, is complexed with the congo red dye (Elastin Congo Red, ECR). The elastolysis activity from the culture supernatant will degrade elastin and release the congo red dye into the supernatant. This red dye release can be measured with a spectrophotometer. Some compounds of Formula (I) were assessed using the method of Assay 1 (described below). Other compounds of Formula (I) were assessed using the alternative but equivalent method of Assay 2 (described below).
Method (Assay 1): To determine LasB elastase activity and assess compound inhibition, an overnight culture of P. aeruginosa strain PA01 is diluted thousand-fold in LB medium. This diluted solution is incubated during 19 hours in a shaking incubator. Culture supernatants are recovered by centrifugation and filtrated through a […] filter. These supernatants are dialysed (filtration molecules <20 kDa) into a 50 mM Tris pH 7.4, 2.5 mM CaCl2 solution at 4° C. under agitation for 24 hours. Supernatant dialysed is then mixed volume/volume with the ECR suspension (20 mg/mL of ECR in 100 mM Tris buffer supplemented with 1 mM CaCl2) supplemented with TritonX 100 (final concentration of 0.01%) in presence of different concentrations of compound (routinely 50 and 25 μM). The mixed reaction is then incubated for 24 hours in a 37° shaking incubator. As a negative control, the mixed supernatant is replaced by Tris solution (50 mM Tris pH 7.4, 2.5 mM CaCl2). The reaction supernatant is recovered by centrifugation and the release of congo red is measured by its absorbance at OD520. Percentage inhibition is determined using the following equation: (OD520 value of DMSO SN−OD520 value of LB)−(OD520 value of Compound SN−OD520 value of LB)/(OD520 value of DMSO SN−OD520 value of LB)×100.

T1 sequence (P14756 198-498): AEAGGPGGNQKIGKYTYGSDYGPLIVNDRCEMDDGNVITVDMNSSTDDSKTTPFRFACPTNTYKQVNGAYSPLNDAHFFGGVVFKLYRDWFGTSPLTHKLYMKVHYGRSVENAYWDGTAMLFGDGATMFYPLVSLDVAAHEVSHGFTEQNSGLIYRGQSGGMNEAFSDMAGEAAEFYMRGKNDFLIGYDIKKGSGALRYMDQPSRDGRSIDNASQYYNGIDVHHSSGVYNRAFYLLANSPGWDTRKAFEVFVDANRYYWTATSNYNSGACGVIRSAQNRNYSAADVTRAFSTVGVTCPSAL
T2 sequence (P14756 198-498): as above

O=C(O)CC1(C(=O)NCCc2cc3ccccc3s2)Cc2ccccc2C1 [Example 30, 2-[2-[2-(benzothiophen-2-yl)ethylcarbamoyl]indan-2-yl]acetic acid]
Ki [1]: 2 to 10 µM
inhibition at 50 µM [2]: 15 to 30%

COc1ccc2nc(CNC(=O)C3(CC(=O)O)Cc4ccccc4C3)sc2c1 [Example 32, 2-[2-[(6-methoxy-1,3-benzothiazol-2-yl)methylcarbamoyl]indan-2-yl]acetic acid]
Ki [1]: < 0.3 µM
inhibition at 50 µM [2]: > 60%

O=C(O)CC1(C(=O)N[C@H](CO)Cc2c[nH]c3ccccc23)Cc2ccccc2C1 [Example 33, (2-{[(2S)-1-hydroxy-3-(1H-indol-3-yl)propan-2-yl]carbamoyl}-1,3-dihydroinden-2-yl)acetic acid]
Ki [1]: 0.3 to 2 µM
inhibition at 50 µM [2]: 30 to 60%

CN(C)CC#Cc1ccc2nc(CNC(=O)C3(CC(=O)O)Cc4ccccc4C3)sc2c1 [Example 35, 2-[2-[[6-[3-(dimethylamino)prop-1-ynyl]-1,3-benzothiazol-2-yl]methylcarbamoyl]indan-2-yl]acetic acid]
Ki [1]: < 0.3 µM
inhibition at 50 µM [2]: > 60%

CN(C)CCCc1ccc2nc(CNC(=O)C3(CC(=O)O)Cc4ccccc4C3)sc2c1 [Example 36, 2-[2-[[6-[3-(dimethylamino)propyl]-1,3-benzothiazol-2-yl]methylcarbamoyl]indan-2-yl]acetic acid]
Ki [1]: < 0.3 µM
inhibition at 50 µM [2]: > 60%

C[N+](C)(C)CCCc1ccc2nc(CNC(=O)C3(CC(=O)O)Cc4ccccc4C3)sc2c1 [Example 37, 3-[2-[[[2-(carboxymethyl)indane-2-carbonyl]amino]methyl]-1,3-benzothiazol-6-yl]propyl-trimethyl-ammonium]
Ki [1]: 0.3 to 2 µM
inhibition at 50 µM [2]: > 60%

NCCCc1ccc2nc(CNC(=O)C3(CC(=O)O)Cc4ccccc4C3)sc2c1 [Example 38, 2-[2-[[6-(3-aminopropyl)-1,3-benzothiazol-2-yl]methylcarbamoyl]indan-2-yl]acetic acid]
Ki [1]: 0.3 to 2 µM
inhibition at 50 µM [2]: > 60%

NC/C=C/c1ccc2nc(CNC(=O)C3(CC(=O)O)Cc4ccccc4C3)sc2c1 [Example 39, 2-[2-[[6-[(E)-3-aminoprop-1-enyl]-1,3-benzothiazol-2-yl]methylcarbamoyl]indan-2-yl]acetic acid]
Ki [1]: < 0.3 µM
inhibition at 50 µM [2]: > 60%

NCCCc1ccc2sc(CNC(=O)C3(CC(=O)O)Cc4ccccc4C3)nc2c1 [Example 40, 2-[2-[[5-(3-aminopropyl)-1,3-benzothiazol-2-yl]methylcarbamoyl]indan-2-yl]acetic acid]
Ki [1]: < 0.3 µM
inhibition at 50 µM [2]: > 60%

O=C(O)CC1(C(=O)NCc2nc3ccc(N4CCNCC4)cc3s2)Cc2ccccc2C1 [Example 41, 2-[2-[(6-piperazin-1-yl-1,3-benzothiazol-2-yl)methylcarbamoyl]indan-2-yl]acetic acid]
Ki [1]: 0.3 to 2 µM
inhibition at 50 µM [2]: 30 to 60%

CN1CCN(c2ccc3nc(CNC(=O)C4(CC(=O)O)Cc5ccccc5C4)sc3c2)CC1 [Example 42, 2-[2-[[6-(4-methylpiperazin-1-yl)-1,3-benzothiazol-2-yl]methylcarbamoyl]indan-2-yl]acetic acid]
Ki [1]: 0.3 to 2 µM
inhibition at 50 µM [2]: > 60%

C[N+]1(C)CCN(c2ccc3nc(CNC(=O)C4(CC(=O)O)Cc5ccccc5C4)sc3c2)CC1 [Example 43, 2-[2-[[6-(4,4-dimethylpiperazin-4-ium-1-yl)-1,3-benzothiazol-2-yl]methylcarbamoyl]indan-2-yl]acetic acid]
Ki [1]: 0.3 to 2 µM
inhibition at 50 µM [2]: 30 to 60%

O=C(O)CC1(C(=O)NCc2nc3c(s2)CNCC3)Cc2ccccc2C1 [Example 44, 2-[2-(4,5,6,7-tetrahydrothiazolo[5,4-c]pyridin-2-ylmethylcarbamoyl)indan-2-yl]acetic acid]
Ki [1]: 2 to 10 µM
inhibition at 50 µM [2]: 15 to 30%
